Legend:
Assay type in all cases: cell-based
HL-60(TB) (leukemia) = assay: NCI-60 SRB cytotoxicity screen; conditions: Homo sapiens, single dose 10 μM, read-out: growth inhibition (GI%)
K-562 (leukemia) = assay: NCI-60 SRB cytotoxicity screen; conditions: Homo sapiens; K-652 [sic], single dose 10 μM; read-out: growth inhibition (GI%)
RPMI-8226 (leukemia) = assay: NCI-60 SRB cytotoxicity screen; conditions: Homo sapiens; RPMI-8226, single dose 10 μM; read-out: growth inhibition (GI%)
[1] = tested on: HOP-62 (non-small cell lung cancer); assay: NCI-60 SRB cytotoxicity screen; conditions: Homo sapiens; HOP-62, single dose 10 μM; read-out: growth inhibition (GI%)
[2] = tested on: NCI-H23 (non-small cell lung cancer); assay: NCI-60 SRB cytotoxicity screen; conditions: Homo sapiens; NCI-H23, single dose 10 μM; read-out: growth inhibition (GI%)
[3] = tested on: NCI-H522 (non-small cell lung cancer); assay: NCI-60 SRB cytotoxicity screen; conditions: Homo sapiens; NCI-H522, single dose 10 μM; read-out: growth inhibition (GI%)
COLO 205 (colon cancer) = assay: NCI-60 SRB cytotoxicity screen; conditions: Homo sapiens; COLO 205, single dose 10 μM; read-out: growth inhibition (GI%)
HCC-2998 (colon cancer) = assay: NCI-60 SRB cytotoxicity screen; conditions: Homo sapiens; HCC-2998, single dose 10 μM; read-out: growth inhibition (GI%)
HCT-116 (colon cancer) = assay: NCI-60 SRB cytotoxicity screen; conditions: Homo sapiens; HCT-116, single dose 10 μM; read-out: growth inhibition (GI%)
KM12 (colon cancer) = assay: NCI-60 SRB cytotoxicity screen; conditions: Homo sapiens; KM12, single dose 10 μM; read-out: growth inhibition (GI%)
SF-268 (CNS cancer) = assay: NCI-60 SRB cytotoxicity screen; conditions: Homo sapiens; SF-268, single dose 10 μM; read-out: growth inhibition (GI%)
SNB-19 (CNS cancer) = assay: NCI-60 SRB cytotoxicity screen; conditions: Homo sapiens; SNB-19, single dose 10 μM; read-out: growth inhibition (GI%)
SK-MEL-28 (melanoma) = assay: NCI-60 SRB cytotoxicity screen; conditions: Homo sapiens; SK-MEL-28, single dose 10 μM; read-out: growth inhibition (GI%)
SK-MEL-5 (melanoma) = assay: NCI-60 SRB cytotoxicity screen; conditions: Homo sapiens; SK-MEL-5, single dose 10 μM; read-out: growth inhibition (GI%)
UACC-62 (melanoma) = assay: NCI-60 SRB cytotoxicity screen; conditions: Homo sapiens; UACC-62, single dose 10 μM; read-out: growth inhibition (GI%)
IGROV1 (ovarian cancer) = assay: NCI-60 SRB cytotoxicity screen; conditions: Homo sapiens, IGROV-1; IGROV1, single dose 10 μM; read-out: growth inhibition (GI%)
OVCAR-3 (ovarian cancer) = assay: NCI-60 SRB cytotoxicity screen; conditions: Homo sapiens; OVCAR-3, single dose 10 μM; read-out: growth inhibition (GI%)
RXF 393 (renal cancer) = assay: NCI-60 SRB cytotoxicity screen; conditions: Homo sapiens; RXF 393, single dose 10 μM; read-out: growth inhibition (GI%)
DU-145 (prostate cancer) = assay: NCI-60 SRB cytotoxicity screen; conditions: Homo sapiens; DU-145, single dose 10 μM; read-out: growth inhibition (GI%)
MCF7 (breast cancer) = assay: NCI-60 SRB cytotoxicity screen; conditions: Homo sapiens; MCF7, single dose 10 μM; read-out: growth inhibition (GI%)
HS 578T (breast cancer) = assay: NCI-60 SRB cytotoxicity screen; conditions: Homo sapiens, single dose 10 μM, read-out: growth inhibition (GI%)
BT-549 (breast cancer) = assay: NCI-60 SRB cytotoxicity screen; conditions: Homo sapiens; BT-549, single dose 10 μM; read-out: growth inhibition (GI%)
T-47D (breast cancer) = assay: NCI-60 SRB cytotoxicity screen; conditions: Homo sapiens, T47D, single dose 10 μM, read-out: growth inhibition (GI%)
[4] = tested on: MDA-MB-468 (breast cancer); assay: NCI-60 SRB cytotoxicity screen; conditions: Homo sapiens; MDA-MB-468, single dose 10 μM; read-out: growth inhibition (GI%)
Description: (§1) The cytotoxic activity of the synthesized quinoline derivatives was determined by the national cancer institute (NCI, Bethesda, Maryland, USA) against 60 different cancer cell lines at a single high dose (10^−5 M) in the full NCI 60 cell panel using the sulforhodamine B assay for cell viability evaluation. In summary, 5 × 10^3 cells were in 96-well plate and incubated in complete media for 24 h. Cells were treated with 100 μL of media containing each newly synthesized compound. After drug exposure, cells were fixed by replacing media with 150 μL of 10% TCA and incubated at 4 °C for 1 h. The TCA solution was removed, and the cells were washed 5 times with distilled water. Aliquots of 70 μL SRB solution (0.4% w/v) were added and incubated in a dark place at room temperature for 10 min. The plates were washed 3 times with 1% acetic acid and allowed to air-dry overnight. Then, 150 μL of TRIS (10 mM) was added to dissolve protein-bound SRB stain. The absorbance was measured at 540 nm.% Cytotoxicity = [1 − (AVx/AVNC)] × 100where AVx denotes the average absorbance of the sample well and AVNC denotes the average absorbance of the negative control.
The methodology of the NCI anticancer screening has been described in details at (http://www.dtp.nci.nih.gov). The anticancer assay was performed in full NCI 60 cell lines derived from nine tumor subpanels, including leukemia, lung, colon, CNS, melanoma, ovarian, renal, prostate, and breast cancer cell lines.
The cell lines were first cultured for 48 h, after being exposed to a single dosage of the compound. Using the protein-binding dye sulforhodamine B dye, cell proliferation and viability were evaluated (SRB assay). The results were presented for each chemical as GI%. Compound that met NCI criteria for substantial activity were further evaluated using a five-dose experiment. The NCI60 cell lines were treated with the chemicals in this assay at five different concentration levels (0.01, 0.1, 1, 10, and 100 μM).

[5] = tested on: 60 cancer cell lines (NCI); assay: NCI-60 single-dose screen, overall verdict over the panel; conditions: single dose 10 μM, whole panel
Description: as §1

| Compound | inhibition at 10 µM (HL-60(TB) (leukemia)) [%] | inhibition at 10 µM (K-562 (leukemia)) [%] | inhibition at 10 µM (RPMI-8226 (leukemia)) [%] | inhibition at 10 µM [1] [%] | inhibition at 10 µM [2] [%] | inhibition at 10 µM [3] [%] | inhibition at 10 µM (COLO 205 (colon cancer)) [%] | inhibition at 10 µM (HCC-2998 (colon cancer)) [%] | inhibition at 10 µM (HCT-116 (colon cancer)) [%] | inhibition at 10 µM (KM12 (colon cancer)) [%] | inhibition at 10 µM (SF-268 (CNS cancer)) [%] | inhibition at 10 µM (SNB-19 (CNS cancer)) [%] | inhibition at 10 µM (SK-MEL-28 (melanoma)) [%] | inhibition at 10 µM (SK-MEL-5 (melanoma)) [%] | inhibition at 10 µM (UACC-62 (melanoma)) [%] | inhibition at 10 µM (IGROV1 (ovarian cancer)) [%] | inhibition at 10 µM (RXF 393 (renal cancer)) [%] | inhibition at 10 µM (MCF7 (breast cancer)) [%] | inhibition at 10 µM (HS 578T (breast cancer)) [%] | inhibition at 10 µM (BT-549 (breast cancer)) [%] | other results |
| --- | --- | --- | --- | --- | --- | --- | --- | --- | --- | --- | --- | --- | --- | --- | --- | --- | --- | --- | --- | --- | --- |
| CCc1cccc2cc(C=CC(=O)c3ccc(Br)cc3)c(Cl)nc12 [Compound 3e, 1-(4-Bromophenyl)-3-(2-chloro-8-ethylquinolin-3-yl)prop-2-en-1-one] | < 10 | < 10 | < 10 | < 10 | < 10 | < 10 | < 10 | < 10 | < 10 | < 10 | < 10 | < 10 | < 10 | < 10 | < 10 | < 10 | < 10 | < 10 | < 10 | < 10 | inhibition at 10 µM (OVCAR-3 (ovarian cancer)): < 10%; inhibition at 10 µM (DU-145 (prostate cancer)): < 10%; inhibition at 10 µM (T-47D (breast cancer)): < 10%; inhibition at 10 µM [4]: < 10%; cytotoxic activity over the cell lines (in words) [5]: low cytotoxic activity |
| CCc1cccc2cc(-c3cc(-c4ccc(F)cc4)[nH]c(=O)c3C#N)c(Cl)nc12 [Compound 4d, 4-(2-Chloro-8-ethylquinolin-3-yl)-6-(4-fluorophenyl)-2-oxo-1,2-dihydropyridine-3-carbonitrile] | < 10 | 27.2 | 14 | < 10 | 12 | < 10 | < 10 | < 10 | < 10 | < 10 | < 10 | < 10 | < 10 | 16.8 | 16.5 | < 10 | < 10 | 24.6 | < 10 | 17.8 | inhibition at 10 µM (OVCAR-3 (ovarian cancer)): < 10%; inhibition at 10 µM (DU-145 (prostate cancer)): < 10%; inhibition at 10 µM (T-47D (breast cancer)): 14.4%; inhibition at 10 µM [4]: < 10%; cytotoxic activity over the cell lines (in words) [5]: mild cytotoxic activity |
| CCc1cccc2cc(-c3cc(-c4ccc(F)cc4)[nH]c(=S)c3C#N)c(Cl)nc12 [Compound 5d, 4-(2-Chloro-8-ethylquinolin-3-yl)-6-(4-fluorophenyl)-2-thioxo-1,2-dihydropyridine-3-carbonitrile] | < 10 | 29.3 | 23 | < 10 | 16.4 | 11.8 | < 10 | < 10 | < 10 | < 10 | 21 | 10.5 | < 10 | 15.3 | 25.7 | 28.6 | < 10 | 40.4 | 18.2 | 12.2 | inhibition at 10 µM (T-47D (breast cancer)): 21.1%; inhibition at 10 µM [4]: 14%; cytotoxic activity over the cell lines (in words) [5]: slight cytotoxic activity |
| CCc1cccc2cc(C3C=C(c4ccc(F)cc4)NC(=S)N3)c(Cl)nc12 (stereo not shown) [Compound 6d, 4-(2-Chloro-8-ethylquinolin-3-yl)-6-(4-fluorophenyl)-3,4-dihydropyrimidine-2(1H)-thione] | < 10 | 27.6 | 19.3 | 15.2 | 11.8 | 25 | < 10 | < 10 | 21.5 | 13.2 | 14.9 | < 10 | < 10 | < 10 | 14.2 | < 10 | < 10 | 24.6 | < 10 | < 10 | inhibition at 10 µM (OVCAR-3 (ovarian cancer)): < 10%; inhibition at 10 µM (DU-145 (prostate cancer)): < 10%; inhibition at 10 µM (T-47D (breast cancer)): 23.9%; cytotoxic activity over the cell lines (in words) [5]: limited cytotoxic activity |
